# According to patent US20260216149A1, “USE OF DIAZAPHENANTHRENE PROTONATED DIMER” (XI’AN LIZE TECHNOLOGY PROJECT INVESTMENT CO., LTD., priority 2023, published 2026):
# Experiments:
# [1] = system: S. aureus; conditions: 12 h culture, absorbance 600 nm
# [2] = system: E. faecalis; assay: Tests for MIC and MBC; type: cell-based, Enterococcus faecalis; conditions: unit assumed; for MIC: 12 h culture, absorbance 600 nm; for MBC: subculture further 12 h
# [3] = system: S. thermophilus; assay: Tests for MIC and MBC; type: cell-based, Streptococcus thermophilus; conditions: unit assumed; for MIC: 12 h culture, absorbance 600 nm; for MBC: subculture further 12 h
# [4] = system: A. niger; assay: Tests for MIC and MFC; type: cell-based, Aspergillus niger; conditions: unit assumed; for MIC: 12 h culture, absorbance 600 nm; for MFC: subculture further 12 h
# [5] = system: H. staphylococcus; assay: Tests for MIC and MBC; type: cell-based, hemolytic staphylococcus; conditions: unit assumed; for MIC: 12 h culture, absorbance 600 nm; for MBC: subculture further 12 h
# [6] = system: L. monocytogenes; assay: Tests for MIC and MBC; type: cell-based, Listeria monocytogenes; conditions: unit assumed; for MIC: 12 h culture, absorbance 600 nm; for MBC: subculture further 12 h
# [7] = system: K. pneumoniae; assay: Tests for MIC and MBC; type: cell-based, Klebsiella pneumoniae; conditions: unit assumed; for MIC: 12 h culture, absorbance 600 nm; for MBC: subculture further 12 h
# [8] = system: S. bovis; assay: Tests for MIC and MBC; type: cell-based, Streptococcus bovis; conditions: unit assumed; for MIC: 12 h culture, absorbance 600 nm; for MBC: subculture further 12 h
# [9] = system: M. furfur; assay: Tests for MIC and MFC; type: cell-based, Malassezia furfur; conditions: unit assumed; for MIC: 12 h culture, absorbance 600 nm; for MFC: subculture further 12 h
# [10] = system: B. subtilis; assay: Tests for MIC and MBC; type: cell-based, Bacillus subtilis; conditions: unit assumed; for MIC: 12 h culture, absorbance 600 nm; for MBC: subculture further 12 h
# [11] = system: S. enteritidis; assay: Tests for MIC and MBC; type: cell-based, Salmonella enteritidis; conditions: unit assumed; for MIC: 12 h culture, absorbance 600 nm; for MBC: subculture further 12 h
# [12] = system: T. rubrum; assay: Tests for MIC and MFC; type: cell-based, Trichophyton rubrum; conditions: unit assumed; for MIC: 12 h culture, absorbance 600 nm; for MFC: subculture further 12 h
# [13] = system: S. mutans; assay: Tests for MIC and MBC; type: cell-based, Streptococcus mutans; conditions: unit assumed; for MIC: 12 h culture, absorbance 600 nm; for MBC: subculture further 12 h
# [14] = system: P. aeruginosa; assay: Tests for MIC and MBC; type: cell-based, Pseudomonas aeruginosa; conditions: unit assumed; for MIC: 12 h culture, absorbance 600 nm; for MBC: subculture further 12 h
# [15] = system: C. perfringens; conditions: 12 h culture, absorbance 600 nm
# [16] = system: C. neoformans; assay: Tests for MIC and MFC; type: cell-based, Cryptococcus neoformans; conditions: unit assumed; for MIC: 12 h culture, absorbance 600 nm; for MFC: subculture further 12 h
# [17] = system: C. albicans; assay: Tests for MIC and MFC; type: cell-based, Candida albicans; conditions: unit assumed; for MIC: 12 h culture, absorbance 600 nm; for MFC: subculture further 12 h
# [18] = system: S. epidermidis; assay: Tests for MIC and MBC; type: cell-based, Staphylococcus epidermidis; conditions: unit assumed; for MIC: 12 h culture, absorbance 600 nm; for MBC: subculture further 12 h
# [19] = system: M. globosa; assay: Tests for MIC and MFC; type: cell-based, Malassezia globosa; conditions: unit assumed; for MIC: 12 h culture, absorbance 600 nm; for MFC: subculture further 12 h
# [20] = system: C. diphtheriae; conditions: 12 h culture, absorbance 600 nm
# [21] = system: E. coli; conditions: 12 h culture, absorbance 600 nm
# [22] = system: P. fluorescens; assay: Tests for MIC and MBC; type: cell-based, Pseudomonas fluorescens; conditions: unit assumed; for MIC: 12 h culture, absorbance 600 nm; for MBC: subculture further 12 h
# [23] = system: P. vulgaris; assay: Tests for MIC and MBC; type: cell-based, Proteus vulgaris; conditions: unit assumed; for MIC: 12 h culture, absorbance 600 nm; for MBC: subculture further 12 h
# [24] = system: B. cereus; assay: Tests for MIC and MBC; type: cell-based, Bacillus cereus; conditions: unit assumed; for MIC: 12 h culture, absorbance 600 nm; for MBC: subculture further 12 h
# [25] = system: A. flavus; assay: Tests for MIC and MFC; type: cell-based, Aspergillus flavus; conditions: unit assumed; for MIC: 12 h culture, absorbance 600 nm; for MFC: subculture further 12 h
# [26] = system: S. lactis; assay: Tests for MIC and MBC; type: cell-based, Streptococcus lactis; conditions: unit assumed; for MIC: 12 h culture, absorbance 600 nm; for MBC: subculture further 12 h
# [27] = system: Y. enterocolitis; assay: Tests for MIC and MBC; type: cell-based, Yersinia enterocolitis; conditions: unit assumed; for MIC: 12 h culture, absorbance 600 nm; for MBC: subculture further 12 h
# [28] = system: Mouse liver cancer H22 cell line; assay: IC50 determination (CCK-8); type: cell-based; conditions: H22, RPMI 1640, treated 8 h
# Method: (§1) The cells were washed with PBS (pH 7.4), added with a CCK-8 solution (Beijing Beyotime Biotechnology) to each well according to the instructions, and then incubated for 4 h.
# [29] = system: Human lung adenocarcinoma A549 cell line; assay: IC50 determination (CCK-8); type: cell-based; conditions: A549, DMEM HG, treated 8 h
# Method: as §1
# [30] = system: Mouse melanoma B16 cell line; assay: IC50 determination (CCK-8); type: cell-based; conditions: B16, RPMI 1640, treated 8 h
# Method: as §1
# [31] = system: Human neuroblastoma SH-SY5Y cell line; assay: IC50 determination (CCK-8); type: cell-based; conditions: DMEM/F12, treated 8 h
# Method: as §1
# [32] = system: Human neuroglioma U521MG cell Line; assay: IC50 determination (CCK-8); type: cell-based; conditions: DMEM HG, treated 8 h
# Method: as §1
# [33] = system: Cryptococcus neoformans; assay: Test for Cryptococcus-infected mice; type: in vivo; conditions: Example 1 2, 4, 8 mg/kg iv, fluconazole 8 mg/kg ip
smiles,measurement,setting,value
F[Si-2](F)(F)(F)(F)F.c1cnc2c(c1)ccc1ccc[nH+]c12.c1cnc2c(c1)ccc1ccc[nH+]c12.c1cnc2c(c1)ccc1cccnc12.c1cnc2c(c1)ccc1cccnc12 [Example 2],MIC,[1],0.4
same,MIC,[2],6 µg/mL
same,MBC,[2],20 µg/mL
same,MIC,[3],0.8 µg/mL
same,MBC,[3],4 µg/mL
same,MIC,[4],0.4 µg/mL
same,MFC,[4],4 µg/mL
same,MIC,[5],0.2 µg/mL
same,MBC,[5],0.5 µg/mL
same,MIC,[6],0.3 µg/mL
same,MBC,[6],1.2 µg/mL
same,MIC,[7],0.8 µg/mL
same,MBC,[7],5 µg/mL
same,MIC,[8],0.6 µg/mL
same,MBC,[8],2 µg/mL
same,MIC,[9],1 µg/mL
same,MFC,[9],6 µg/mL
same,MIC,[10],0.6 µg/mL
same,MBC,[10],2.5 µg/mL
same,MIC,[11],0.8 µg/mL
same,MBC,[11],4 µg/mL
same,MIC,[12],1.6 µg/mL
same,MFC,[12],10 µg/mL
same,MIC,[13],0.8 µg/mL
same,MBC,[13],4 µg/mL
same,MIC,[14],0.4 µg/mL
same,MBC,[14],2 µg/mL
same,MIC,[15],2.5
same,MIC,[16],0.4 µg/mL
same,MFC,[16],5 µg/mL
same,MIC,[17],0.4 µg/mL
same,MFC,[17],8 µg/mL
same,MIC,[18],0.4 µg/mL
same,MBC,[18],2.5 µg/mL
same,MIC,[19],2 µg/mL
same,MFC,[19],10 µg/mL
same,MIC,[20],1.6
same,MIC,[21],0.4
same,MIC,[22],0.4 µg/mL
same,MBC,[22],3 µg/mL
same,MIC,[23],0.8 µg/mL
same,MBC,[23],4 µg/mL
same,MIC,[24],2 µg/mL
same,MBC,[24],6 µg/mL
same,MIC,[25],0.4 µg/mL
same,MFC,[25],6 µg/mL
same,MIC,[26],1.2 µg/mL
same,MBC,[26],4 µg/mL
same,MIC,[27],0.4 µg/mL
same,MBC,[27],2 µg/mL
O=S(=O)(O)O.c1cnc2c(c1)ccc1cccnc12.c1cnc2c(c1)ccc1cccnc12.c1cnc2c(c1)ccc1cccnc12.c1cnc2c(c1)ccc1cccnc12 [Example 3],MIC,[1],0.5
same,MIC,[2],8 µg/mL
same,MBC,[2],30 µg/mL
same,MIC,[3],1 µg/mL
same,MBC,[3],5 µg/mL
same,MIC,[4],0.5 µg/mL
same,MFC,[4],6 µg/mL
same,MIC,[5],0.2 µg/mL
same,MBC,[5],0.6 µg/mL
same,MIC,[6],0.3 µg/mL
same,MBC,[6],1.5 µg/mL
same,MIC,[7],1 µg/mL
same,MBC,[7],6 µg/mL
same,MIC,[8],0.8 µg/mL
same,MBC,[8],3 µg/mL
same,MIC,[9],1 µg/mL
same,MFC,[9],6 µg/mL
same,MIC,[10],0.6 µg/mL
same,MBC,[10],3 µg/mL
same,MIC,[11],1 µg/mL
same,MBC,[11],5 µg/mL
same,MIC,[12],2 µg/mL
same,MFC,[12],12 µg/mL
same,MIC,[13],1 µg/mL
same,MBC,[13],5 µg/mL
same,MIC,[14],0.5 µg/mL
same,MBC,[14],3 µg/mL
same,MIC,[15],3
same,MIC,[16],0.5 µg/mL
same,MFC,[16],6 µg/mL
same,MIC,[17],0.5 µg/mL
same,MFC,[17],9 µg/mL
same,MIC,[18],0.5 µg/mL
same,MBC,[18],3 µg/mL
same,MIC,[19],2 µg/mL
same,MFC,[19],12 µg/mL
same,MIC,[20],2
same,MIC,[21],0.5
same,MIC,[22],0.5 µg/mL
same,MBC,[22],3 µg/mL
same,MIC,[23],1 µg/mL
same,MBC,[23],6 µg/mL
same,MIC,[24],2 µg/mL
same,MBC,[24],9 µg/mL
same,MIC,[25],0.5 µg/mL
same,MFC,[25],6 µg/mL
same,MIC,[26],1.5 µg/mL
same,MBC,[26],6 µg/mL
same,MIC,[27],0.5 µg/mL
same,MBC,[27],3 µg/mL
F[P-](F)(F)(F)(F)F.O=[N+]([O-])c1cc2ccc[nH+]c2c2ncccc12.O=[N+]([O-])c1cc2cccnc2c2ncccc12 [Example 7],IC50,[28],320 µM
same,IC50,[29],320 µM
same,IC50,[30],320 µM
same,IC50,[31],32 µM
same,IC50,[32],320 µM
same,MIC,[24],0.5 µg/mL
same,MBC,[24],4 µg/mL
OC(Cn1cncn1)(Cn1cncn1)c1ccc(F)cc1F [fluconazole],"pathological symptoms of brains and lungs (cerebral edema, pneumonia)",[33],pathological symptoms were improved
same,Cryptococcus-infected symptoms and weight,[33]; once a day for 9 days,"the symptoms were improved, and the weight gained"
